In brackets after ≈: the same amount, converted by molar mass. Read-outs that look alike come from different tables or passages of the source.

The nature of series [1]: Determination of prodrug solubility (50 mg/mL target, HPLC of supernatant). In kind it is physicochemical. Conditions: thermodynamic from solid. On the procedure: For each test, approximately 5-10 mg was transferred to a 10 mL glass vial. Aqueous or organic solvent was added to each vial to achieve an overall concentration of 50 mg/mL. After vortexing aggressively for 2-3 minutes and sonicating in a bath sonicator for 5 minutes, undissolved drug was spun down at 1200×g for 5 minutes to generate a pellet. The supernatant was collected and filtered through a 0.2 μm nylon syringe filter into HPLC vials for drug content analysis. Drug concentration was determined by comparing against a standard calibration curve.

The test system of series [2] is African green monkeys. Conditions: monkey, in vivo.
Setting [3] is: DMSO, organic solvent or mixture, read-out: Solubility DMSO.
Setting [4] is: organic solvent or mixture, DCM (dichloromethane), read-out: Solubility DCM.
The mark [5] stands for this setting: water, read-out: Solubility Water.

The solubility is the concentration that dissolves in the medium under given conditions. As for `CCOC(=O)[C@H](C)OC(=O)[C@H](C)OC(=O)[C@H](C)OC(=O)[C@H](C)OC(=O)c1cc(S(N)(=O)=O)c(Cl)cc1NCc1ccco1` [Compd 1, furosemide-ethyl-PLA (n=4)], the solubility was greater than 100 mg/mL in series [1] (setting [3]), greater than 50 mg/mL in series [1] (setting [4]) and less than 0.1 mg/mL in series [1] (setting [5]).
As for `CCCCNc1cc(C(=O)O)cc(S(N)(=O)=O)c1Oc1ccccc1` [Bumetanide, reference compound], the solubility is 25 mg/mL (≈ 68.6 mM) in series [1] (setting [3]), 25 mg/mL (≈ 68.6 mM) in series [1] (setting [4]) and less than 0.1 mg/mL in series [1] (setting [5]). Also, in series [2], the Ocular toxicity findings entry was “No ocular toxicity findings”.
As to `CCOC(=O)[C@H](C)OC(=O)[C@H](C)OC(=O)[C@H](C)OC(=O)[C@H](C)OC(=O)[C@H](C)OC(=O)[C@H](C)OC(=O)c1cc(S(N)(=O)=O)c(Cl)cc1NCc1ccco1` [Compound 5, furosemide-ethyl-PLA (n=6)], the solubility in series [1] (setting [3]) was greater than 100 mg/mL; in series [1] (setting [4]), greater than 50 mg/mL; in series [1] (setting [5]), less than 0.1 mg/mL.
On to `CCCCNc1cc(C(=O)O[C@@H](C)C(=O)O[C@@H](C)C(=O)O[C@@H](C)C(=O)O[C@@H](C)C(=O)OCC)cc(S(N)(=O)=O)c1Oc1ccccc1` [Compound 2, bumetanide-ethyl-PLA (n=4)], for which the solubility in series [1] (setting [3]) was greater than 100 mg/mL; in series [1] (setting [4]), greater than 50 mg/mL; in series [1] (setting [5]), less than 0.1 mg/mL.

These data come from patent US20210040111A1, “DRUGS TO TREAT OCULAR DISORDERS” (Graybug Vision, Inc., priority 2018, published 2021).
